# From BindingDB's records for doi:10.1016/0922-4106(90)90035-v (Royal Danish School of Pharmacy, 1990)
# Molecular target: Glutamate receptor ionotropic, NMDA 1 (Rattus norvegicus, UniProt P35439)
row,SMILES,Ki [µM]
1,CNC(C(=O)O)c1c(C)o[nH]c1=O (configuration not stated),> 10
2,O=C(O)C1NCCc2o[nH]c(=O)c21 (configuration not stated) [CAS_129091],> 10
3,"Cc1o[nH]c(=O)c1C(C(=O)O)N(C)C (configuration not stated) [N,N-dimethyl-AMAA]",> 10
4,"O=C(O)c1cccnc1C(=O)O [pyridine-2,3-dicarboxylic acid]",> 10

# Molecular target: Glutamate receptor 3 (Rattus norvegicus, UniProt P19492)
# Sequence (P19492 whole entry): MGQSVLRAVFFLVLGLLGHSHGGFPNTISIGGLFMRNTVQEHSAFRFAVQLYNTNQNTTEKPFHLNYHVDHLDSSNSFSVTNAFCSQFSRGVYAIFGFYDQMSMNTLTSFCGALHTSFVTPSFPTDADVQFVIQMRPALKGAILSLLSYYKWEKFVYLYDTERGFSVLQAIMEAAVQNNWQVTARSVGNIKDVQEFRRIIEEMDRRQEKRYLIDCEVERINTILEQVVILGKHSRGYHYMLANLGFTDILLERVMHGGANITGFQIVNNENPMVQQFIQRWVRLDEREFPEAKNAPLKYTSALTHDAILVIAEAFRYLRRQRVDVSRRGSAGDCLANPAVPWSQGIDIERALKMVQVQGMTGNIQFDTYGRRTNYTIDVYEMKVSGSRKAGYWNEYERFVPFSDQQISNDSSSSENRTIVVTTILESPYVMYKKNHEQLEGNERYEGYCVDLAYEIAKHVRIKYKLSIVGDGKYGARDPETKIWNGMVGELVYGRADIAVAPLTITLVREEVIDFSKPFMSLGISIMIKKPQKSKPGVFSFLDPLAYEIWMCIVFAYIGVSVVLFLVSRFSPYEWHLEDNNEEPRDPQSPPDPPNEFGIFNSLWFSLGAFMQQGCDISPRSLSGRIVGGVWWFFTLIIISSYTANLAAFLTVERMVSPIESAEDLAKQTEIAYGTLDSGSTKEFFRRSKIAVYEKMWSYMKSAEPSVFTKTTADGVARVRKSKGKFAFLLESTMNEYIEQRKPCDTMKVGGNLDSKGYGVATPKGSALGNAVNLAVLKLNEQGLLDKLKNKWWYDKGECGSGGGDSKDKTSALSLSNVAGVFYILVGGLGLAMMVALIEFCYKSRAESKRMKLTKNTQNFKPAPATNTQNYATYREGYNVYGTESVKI
row,Ki [µM],SMILES
1,> 10,"Cc1o[nH]c(=O)c1CC(C(=O)O)N(C)C (configuration not stated) [N,N-dimethyl-AMPA]"
2,> 10,CNC(Cc1c(C)o[nH]c1=O)C(=O)O (configuration not stated) [N-methyl-AMPA]

row,SMILES,Ki [µM]
1,O=C(O)C1NCCc2o[nH]c(=O)c21 (configuration not stated) [CAS_129091],> 10
